Measured values taken from PMC4591937 (Science translational medicine, 2015).
In brackets after ≈: the same amount, converted by molar mass.

Assays:
[1] = Drug distribution / pharmacokinetics in OVX rats; type: in vivo, rat
lipid peroxidation [2] = test: Inhibition of lipid peroxidation, ferric thiocyanate; type: biochemical; settings: average ± SEM, n = 3
lipid peroxidation [3] = test: Inhibition of lipid peroxidation, thiobarbituric acid reactive substances; type: biochemical; settings: average ± SEM, n = 3
[4] = Binding to human plasma proteins by rapid equilibrium dialysis; type: in vitro ADME
[5] = test system: ERE-luciferase reporter under transcriptional control of ERs; test: Bioluminescence imaging in OVX repTOP ERE-Luc mice; type: in vivo, mouse; settings: DHED s.c. or p.o. ≥200 μg/kg; E2 s.c. 20 μg/kg
uterus of OVX rodents = type: in vivo; settings: for Vaginal smear cytology during and after treatment: OVX rats
ERα in MCF-7Ca cells = test: ERα transactivation in MCF-7Ca breast cancer cells; type: cell-based, human; settings: cultured MCF-7Ca cells, 1 nM
ERα = molecular target: T1, ERα (Homo sapiens, UniProt P03372); test: Estrogen receptor; type: binding
T1 sequence (P03372 1-595): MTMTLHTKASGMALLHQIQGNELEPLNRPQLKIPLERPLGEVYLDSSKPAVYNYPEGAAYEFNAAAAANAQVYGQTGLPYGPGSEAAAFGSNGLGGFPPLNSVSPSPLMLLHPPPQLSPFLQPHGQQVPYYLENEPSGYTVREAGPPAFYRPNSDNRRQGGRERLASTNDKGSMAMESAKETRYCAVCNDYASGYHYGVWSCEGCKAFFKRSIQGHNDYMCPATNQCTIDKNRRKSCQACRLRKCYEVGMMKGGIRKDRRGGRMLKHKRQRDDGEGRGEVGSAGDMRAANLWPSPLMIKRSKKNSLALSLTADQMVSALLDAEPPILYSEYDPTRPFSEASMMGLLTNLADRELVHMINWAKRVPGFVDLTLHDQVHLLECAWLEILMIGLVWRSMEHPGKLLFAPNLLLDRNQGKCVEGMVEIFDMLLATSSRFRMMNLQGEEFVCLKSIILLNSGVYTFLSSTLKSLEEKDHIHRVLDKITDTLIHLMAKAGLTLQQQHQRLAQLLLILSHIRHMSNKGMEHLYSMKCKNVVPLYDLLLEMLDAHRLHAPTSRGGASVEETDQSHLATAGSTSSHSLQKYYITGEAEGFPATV

ERβ = ERβ (Homo sapiens, UniProt Q92731); test: Estrogen receptor; type: binding
ERβ, sequence (Q92731 whole entry, species assumed): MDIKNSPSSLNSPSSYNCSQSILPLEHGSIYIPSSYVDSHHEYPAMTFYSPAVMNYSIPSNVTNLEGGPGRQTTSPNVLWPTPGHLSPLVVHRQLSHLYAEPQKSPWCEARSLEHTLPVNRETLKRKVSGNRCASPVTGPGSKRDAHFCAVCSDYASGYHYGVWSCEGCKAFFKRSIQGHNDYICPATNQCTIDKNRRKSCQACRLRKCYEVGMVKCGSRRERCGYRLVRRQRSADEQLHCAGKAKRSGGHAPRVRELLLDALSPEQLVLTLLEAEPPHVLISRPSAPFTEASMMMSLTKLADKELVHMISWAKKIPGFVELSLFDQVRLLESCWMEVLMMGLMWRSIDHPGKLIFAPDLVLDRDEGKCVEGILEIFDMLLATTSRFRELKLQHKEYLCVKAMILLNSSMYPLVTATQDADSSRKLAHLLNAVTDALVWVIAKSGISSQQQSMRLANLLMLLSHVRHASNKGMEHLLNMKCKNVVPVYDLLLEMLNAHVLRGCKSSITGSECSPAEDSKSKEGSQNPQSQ

OVX Sprague-Dawley rats = test: Transient middle cerebral artery occlusion; type: in vivo, rat
CD1 mice = test: Forced swim test; type: in vivo, mouse
OVX rat = OVX rat hot flush model; type: in vivo; settings: p.o. 30 μg/kg
[6] = test system: middle-aged OVX Fisher-344 rats; test: Delay match-to-sample plus maze test; type: in vivo, rat; settings: continuous s.c. minipump 4 μg daily, 48 days, versus control
OVX rat brain = test: Markers of estrogenic effects in the brain; type: in vivo; settings: for Progesterone receptor (PR) expression in the preoptic area of the hypothalamus: OVX Sprague-Dawley rats, DHED s.c. 50 μg/kg, ICI 182,780 s.c. 1 mg/kg 1 h before DHED
human MCF7-Ca xenografts = test: MCF-7Ca xenograft growth in nude mice; type: in vivo, mouse; settings: 100 μg/kg s.c. daily for 8 weeks
[7] = 0.8 to 100 μg/kg s.c. 1 h before tMCAO

With 16,16,17-d3-DHED the “Site of labelled E2 formation from deuterated prodrug” value ([1]; OVX Sprague-Dawley rats, i.v., tissue 15 min post-dosing) was “d3-E2 was produced exclusively in the brain”.

In the case of `C[C@]12CC[C@@H]3c4ccc(O)cc4CC[C@H]3[C@@H]1CC[C@@H]2O` [Compound E2, 17β-estradiol, reference compound], the IC50 (lipid peroxidation [2]; read-out: Inhibition of lipid peroxidation: IC50, FTC) is reported as 11.8 ± 1.6 µM, the IC50 (lipid peroxidation [3]; read-out: Inhibition of lipid peroxidation: IC50, TBARS) is reported as 3.9 ± 0.4 µM and the “Binding to human plasma proteins” value ([4]; average ± SEM, n = 3) is reported as 97.8 ± 0.3%. The “ERE reporter activation / bioluminescence in peripheral tissues” value [5] was “significant increase of photon emission from the hepatic area”, the “Vaginal smear cytology during and after treatment” value (uterus of OVX rodents) was “vaginal smears with many cornified cells” and the ERα transactivation (ERα in MCF-7Ca cells) was “induced the expected cancer-promoting ERα transactivation”.

In the case of `C[C@]12CC[C@H]3[C@@H](CCC4=CC(=O)C=C[C@@]43O)[C@@H]1CC[C@@H]2O` [DHED, 10β,17β-dihydroxyestra-1,4-dien-3-one], the IC50 (ERα) is reported as over 10 µM, the IC50 (ERβ) is reported as over 10 µM and the “Inhibition of lipid peroxidation: IC50, FTC” value (lipid peroxidation [2]) is reported as “n.i”. For the same molecule, the “Inhibition of lipid peroxidation: IC50, TBARS” value (lipid peroxidation [3]) was “n.i”, the “Binding to human plasma proteins” value ([4]; human) was 58.0 ± 0.6% and the “Prodrug level in the brain” value ([1]; OVX rats after systemic dosing) was “did not detect DHED in the brain”. The Oral absorption ([1]; PK studies of E2 in brain and serum, p.o. (table S1)) was “complete absorption after oral administration”, the half-life ([1]; female, Sprague-Dawley, rat, serum, iv, 200 ug/kg) was 5.1 ± 0.6 min and the “ERE reporter activation / bioluminescence in peripheral tissues” value [5] was “did not activate the ERE reporter construct”. For the same molecule, the “Neuroprotection with post-infarct treatment” value (OVX Sprague-Dawley rats; 100 μg/kg s.c. after tMCAO) was “had a neuroprotective effect”, the Infarct volume (OVX Sprague-Dawley rats; [7]) was “dose-dependent reduction of the infarct volumes” and the “Neurological deficits (ND score)” value (OVX Sprague-Dawley rats; [7]) was “attenuation of neurological deficits”. For the same molecule, the “Antidepressant-like activity in the FST” value (CD1 mice; 10 μg/kg s.c. daily for 5 days, 1 h after last injection) was “outperformed direct administration of E2”, the Tail-skin temperature rise (OVX rat) was “blunted the tail-skin temperature rise” and the Working memory errors [6] was “significantly decreased working memory errors”. For the same molecule, the “ChAT-IR stereological cell counts in medial septum and vertical diagonal band” value (OVX rat brain; OVX Fischer 344 rats, 4 μg/day s.c. pumps, 48 days) was “increased choline acetyltransferase immunoreactive (ChAT-IR) stereological cell counts”, the “Dendritic spines and spine heads in hippocampal CA1 neurons” value (OVX rat brain; OVX Fischer 344 rats, 10 μg s.c. every four days for 40 days) was “increased the number of dendritic spines and spine heads” and the “Progesterone receptor (PR) expression in the preoptic area of the hypothalamus” value (OVX rat brain) was “stimulated progesterone receptor (PR) expression”. The “Expression of estrogen-regulated uterine proteins” value (uterus of OVX rodents; OVX Swiss-Webster mice, 50 μg/kg s.c. daily for 5 days, versus control) was “no changes in the expression”, the “Vaginal smear cytology during and after treatment” value (uterus of OVX rodents) was “remained continuously in diestrus” and the “Wet uterus weight gain (uterotrophic effect)” value (uterus of OVX rodents; OVX rodents, i.v., s.c., p.o. or 48-day s.c. minipump) was “did not result in wet uterus weight gain”. For the same molecule, the “Growth of aromatase-transfected MCF-7Ca xenografts” value (human MCF7-Ca xenografts) was “did not stimulate the growth” and the solubility (physchem) was 60.3 ± 1.7 µg/mL (≈ 209 µM).

In the case of `C[C@]12CC[C@@H]3c4ccc(O)cc4C[C@@H](CCCCCCCCC[S+]([O-])CCCC(F)(F)C(F)(F)F)[C@H]3[C@@H]1CC[C@@H]2O` (stereo partly shown) [ICI 182,780], the “Effect of ER antagonist on antidepressant-like effect of E2 and DHED” value (CD1 mice; 4 mg/kg s.c. co-injected with E2 or DHED 50 μg/kg s.c., 5 days) is reported as “completely blocked this antidepressant-like effect”, the “Brain concentration by LC-MS/MS” value (CD1 mice; 15 min after completion of the FST, systemic dosing) is reported as 6.6 ±0.9 ng/g tissue and the “Progesterone receptor (PR) expression in the preoptic area of the hypothalamus” value (OVX rat brain) is reported as “abolished the effect of DHED treatment on PR induction”.

In the case of `C[C@]12CCC(=O)C=C1CC[C@@H]1[C@@H]2CC[C@]2(C)C(=O)CC[C@@H]12` [Δ^4A, Δ^4-androstenedione], the ERα transactivation (ERα in MCF-7Ca cells) is reported as “induced the expected cancer-promoting ERα transactivation”.
